Data taken from patent US20240352066A1, “ANTIMICROBIAL COMPOUNDS AND THE METHOD OF USE” (priority 2021, published 2024).
In brackets after ≈: the same amount, converted by molar mass. Where a SMILES comes first, the peptide text is derived from it. [ ]: non-standard residue; d: D form. NCyclohexylmethylGly = O=C(O)CNCC1CCCCC1; N(tridecyl)Gly = CCCCCCCCCCCCCNCC(=O)O; Gly(N-2-aminoethyl) = NCCNCC(=O)O; Gly(N-cHex) = O=C(O)CNC1CCCCC1; Gly(N-cPent) = O=C(O)CNC1CCCC1; N(iPr)Gly = CC(C)NCC(=O)O; NPhGly = O=C(O)CNc1ccccc1; NHexGly = CCCCCCNCC(=O)O; Nlys = NCCCCNCC(=O)O

Legend:
C. neoformans [1] = type: cell-based, Cryptococcus neoformans; conditions: 72 h
Method: The minimum inhibitory concentration (MIC) of peptoids against fungal pathogens C. albicans and C. neoformans was determined following CLSI guidelines (CLSI. Reference method for broth dilution antifungal susceptibility testing of yeasts; approved standard-third edition; CLSI document M27-A3. (Clinical and Laboratory Standards Institute, 2008). […] This inoculant was diluted 1:100 into RPMI-MOPS and then further diluted 1:20 into RPMI-MOPS. 198 μL of inoculant was seeded into each well of a 96 well black-walled plate. 2-fold serial dilutions of 100× peptoid solutions were prepared in water and 2 μL of peptoid were added to each well in triplicate. […] MIC was defined as the lowest concentration of compound preventing fungal growth. This assay was repeated 3 times on separate days with each compound. […] The addition of 0.1 mL cell solution to 9.9 mL of RPMI-MOPS produced a 1:100 cell solution. After vortexing, 0.5 mL of the […] was added to 9.5 mL RPMI-MOPS to produce a 1:20 cell solution. 198 μL of the 1:20 solution was added to the wells of an opaque 96-well plate, apart from the wells designated for the medial control. […] Amphotericin B was used as a positive control, and sterile water was used for the vehicle control. The plates were incubated for 72 hours at 35° C. After incubation, the concentration of compound resulting in no visual growth was recorded as the MIC. All assays performed in biological triplicate on different days.

[2] = Mammalian cytotoxicity, MTT, HepG2; type: cell-based, human; conditions: human, HepG2 hepatocellular carcinoma cells
Method: (§1) Hepatocellular carcinoma (HepG2), mouse fibroblast (3T3), human lung (HPL1A), and human keratinocyte (HaCat) cells were cultured in Dulbecco modified eagle media (DMEM) containing 10% fetal bovine serum (FBS) and 1% penicillin, streptomycin, and glutamine (PSG) at 37° C. and 5% CO2. Cells were collected and adjusted to […] to 4×10^5 cells/mL in phenol-red free DMEM and plated (100 μL) 96 well plates. 2-fold serial dilutions of 10× peptoid (11.1 μL) were added to each well in triplicate. Water (vehicle) was used as a negative control. Plates were incubated at 37° C. in 5% CO2 for 72 hours. Thiazolyl blue tetrazolium bromide (MTT) was added to each well (5 mg/mL; 20 μL) and incubated for 3 hours. Media was removed, DMSO (100 μL) was added, and plates were incubated at 37° C. for 10 minutes. Plates were read on a SpectraMax M5 plate reader (Abs. 570 nm). The concentration of compound resulting in a 50% reduction in growth compared to control (toxicity dose 50%; TD50) was determined using GraFit. This procedure was repeated three times on separate days.
(§2) Cytotoxicity against HepG2 hepatocellular carcinoma cells was done as previously described (Green et al. ACS infectious diseases, (2022); Corson et al. ACS medicinal chemistry letters 7 12, 1139-1144 (2016)). HepG2 cells were maintained in culture in T-75 flasks using Dulbecco's Modified Eagle's Media (DMEM) with phenol red pH indicator and supplemented with 10% fetal bovine serum (FBS) and 1% penicillin, streptomycin, and glutamine (PSG). The cells were incubated at 37° C. and 5% CO2 in a humidified incubator until desired confluency was achieved. The media was removed from the flask, and the cells were washed 1× with 10 mL of phosphate-buffered saline (PBS; 11.8 mM phosphate, 140.4 mM NaCl; pH 7.4) which was then discarded. To remove the adhered cells from the flask, 2 mL of trypsin was added, and the cells were incubated for 10 minutes. To quench the trypsin, 8 mL of phenol red-free DMEM with 10% FBS and 1% PGS was added, and the cell solution was transferred to a 15 mL conical tube. After the cells were pelleted by centrifugation at 1000 rpm for 5 minutes, the supernatant was poured off and cells resuspended in the volume of phenol red-free media needed for the assay. Cell concentration was determined by counting with a hemocytometer, and the solution was diluted with media until a concentration of 1×10^5 cells/mL was achieved. A 100 μL aliquot of cell solution was added to each well of a 96-well plate, apart from the 3 wells used for a media control. Cells were incubated for 2-3 hours at 37° C. and 5% CO2 until cells were adherent.
(§3) Compound stocks of 20 mg/mL were used to prepare 2-fold serial dilutions of each compound in sterile water, giving final concentrations of 200, 100, 50, 25, 12.5, 6.25, 3.13 and 1.56 μg/mL. 11.1 μL of prepared compound solutions was added to the appropriate wells in triplicate. A negative vehicle control of sterile water, as well as the aforementioned media control, were used. The plates were incubated for 72 hours at 37° C. and 5% CO2. After incubation, 20 μL of 5 mg/mL 3-(4,5-dimethylthiazol-2-yl)-2,5-diphenyltetrazolium bromide (MTT) in water was added to each well. The plate was incubated for 3 hours at 37° C. and 5% CO2. Media was removed from each well using a sterile glass Pasteur pipette. 100 μL of DMSO was added to each well and incubated for 15 minutes at 37° C. Absorbance was read at 570 nm using a SpectraMax M5 Plate Reader. This MTT assay was performed in biological duplicate unless discrepant results were observed. If this was the case, the assay was performed in biological triplicate for further verification. The reported value is the average of biological replicates with standard deviation.

[3] = system: HepG2 hepatocellular carcinoma cells; test: Mammalian cytotoxicity, MTT, HepG2; type: cell-based, human
Method: as §1, §2, §3

[4] = Percent acetonitrile at elution during RP-HPLC purification (hydrophobicity); type: physicochemical; conditions: percent acetonitrile at the time of elution from HPLC
Description: All RMG8-8 derivatives were synthesized via the solid-phase submonomer synthesis method on polystyrene Rink Amide resin (Zuckermann et al. Journal of the American Chemical Society 114, 10646-10647 (1992)). The amines used during synthesis and the peptoid shorthand notations for each monomer are provided in Table 7 and Table 8, respectively. Compounds were purified to greater than 95% by RP-HPLC and compound identity was confirmed by ESI-TOF MS (Table 9). The calculated distribution coefficient at pH 7.4 (c Log D7.4) (via Chemaxon. MarvinSketch 19.17.0, 2019) and the percent acetonitrile at the time of elution during HPLC purification were recorded and serve as measures of hydrophobicity (Table 10). Higher values for c Log D7.4 and percent acetonitrile are indicators of increased compound hydrophobicity. With antimicrobial peptoids, hydrophobicity is directly related to both antimicrobial activity and cytotoxicity (Andreev et al. Biochimica et biophysica acta. Biomembranes 1860 6, 1414-1423 (2018); Bolt et al. Med chem comm 8, 886-896 (2017); Frederiksen et al. Molecules 24, (2019)). The ideal balance of these parameters generally must be determined experimentally. To measure antifungal activity, the minimum inhibitory concentration (MIC), defined as the concentration of compound required to inhibit 90% of fungal growth, was determined against C. neoformans using the broth microdilution method. Mammalian cytotoxicity was evaluated through a cell metabolic activity assay with HepG2 liver carcinoma cells, and select, potentially promising compounds were tested for unwanted hemolytic activity against human red blood cells.
Peptoids were purified via Reversed-Phase High-Performance Liquid Chromatography (RP-HPLC) using a Varian Prepstar SD-1. A gradient of 0-100% water to acetonitrile containing 0.05% TFA made up the mobile phase, and a Supelco Ascentis C18 column (5 μm; 25 cm×21.2 mm; Sigma-Aldrich 581347-U) was used as the stationary phase. Peaks in the chromatogram above 0.1 AU were collected and analyzed via mass spectrometry. The peak product with the desired peptoid was dried down in vacuo and lyophilized overnight. Peptoids were then reconstituted in sterile […] deionized water to create compound stocks of 20 mg/mL.

C. neoformans [5] = test: microbe, parasite or virus in culture; type: cell-based, Cryptococcus neoformans; conditions: for MIC: Cryptococcus neoformans, checkerboard, 72 hours at 35° C., read-out: MIC (compound alone); for interpretation of combination with RMG8-8: FICi<0.5 synergistic, 0.5≤FICi≤4 indifferent, FICi>4 antagonist; for Combination MIC RMG8-8:Drug, RMG8-8 part: RMG8-8 concentration in combination with the named drug; for Combination MIC RMG8-8:Drug, Drug part: drug concentration in combination with RMG8-8; for FICi: named drug in combination with RMG8-8
Method: Cell solution was diluted into RPMI-MOPS (1:100) followed by another dilution into RPMI-MOPS (1:20). […] Plates were incubated for 72 hours at 35° C. MIC was determined as the lowest concentration of individual compound or combined compounds inhibiting pathogen growth. Fractional inhibitory concentration index (FICi) was determine using the following equation: FICi values were interpreted as follows: FICi<0.5 synergistic; 0.5≤FICi≤4 indifferent; FICi>4 antagonist (Johnson et al., Antimicrob. Agents Chemother. 48, 693-715 (2004)).

Row | SMILES | C. neoformans MIC (C. neoformans [1]) | % ACN [4] | MIC (C. neoformans [5]) | Combination MIC RMG8-8:Drug, RMG8-8 part (C. neoformans [5]) | Combination MIC RMG8-8:Drug, Drug part (C. neoformans [5]) | CC50 at 72 h [2] | HepG2 TD50 [3] | interpretation of combination with RMG8-8 (C. neoformans [5]) | FICi (C. neoformans [5])
1 | CCCCCCCCCCCCCNCC(=O)N(CC(=O)N(CCCC[N+](C)(C)C)CC(=O)N(CC[N+](C)(C)C)CC(=O)N(CC(N)=O)C1CCCCC1)C1CCCCC1 [Compound 1] | 12.5 µg/mL |  |  |  |  | > 200 µg/mL | > 200 µg/mL |  | 
2 | CCCCCCCCCCCCCNCC(=O)N(CCCCN)CC(=O)N(CC(=O)N(CC(=O)N(CCN)CC(N)=O)C1CCCCC1)C1CCCCC1 [Compound 3] (H-[N(tridecyl)Gly][Nlys][Gly(N-cHex)][Gly(N-cHex)][Gly(N-2-aminoethyl)]-NH2) | 3.13 µg/mL | 69.3% |  |  |  | 105 ± 3.8 µg/mL (≈ 138 µM) |  |  | 
3 | CCCCCCCCCCCCCNCC(=O)N(CC(=O)N(CCCCN)CC(=O)N(CCN)CC(=O)N(CC(N)=O)C(C)C)C(C)C [Compound 8] (H-[N(tridecyl)Gly][N(iPr)Gly][Nlys][Gly(N-2-aminoethyl)][N(iPr)Gly]-NH2) | 25 µg/mL | 66.7% |  |  |  | > 200 µg/mL | greater than 200 μg/mL |  | 
4 | CCCCCCCCCCCCCNCC(=O)N(CCCCCC)CC(=O)N(CCCCN)CC(=O)N(CCN)CC(=O)N(CCCCCC)CC(N)=O [Compound 10] (H-[N(tridecyl)Gly][NHexGly][Nlys][Gly(N-2-aminoethyl)][NHexGly]-NH2) | 1.56 to 3.13 µg/mL | 73.3% |  |  |  | 61 ± 9 µg/mL (≈ 79.5 µM) |  |  | 
5 | CCCCCCCCCCCCCNCC(=O)N(CC(=O)N(CCCCN)CC(=O)N(CCN)CC(=O)N(CC(N)=O)C1CCCC1)C1CCCC1 [Compound 11] (H-[N(tridecyl)Gly][Gly(N-cPent)][Nlys][Gly(N-2-aminoethyl)][Gly(N-cPent)]-NH2) | 6.25 µg/mL | 68.1% |  |  |  | > 200 µg/mL | greater than 200 μg/mL |  | 

Continued, in another order:

Row | C. neoformans MIC (C. neoformans [1]) | % ACN [4] | MIC (C. neoformans [5]) | Combination MIC RMG8-8:Drug, RMG8-8 part (C. neoformans [5]) | Combination MIC RMG8-8:Drug, Drug part (C. neoformans [5]) | SMILES | CC50 at 72 h [2] | HepG2 TD50 [3] | interpretation of combination with RMG8-8 (C. neoformans [5]) | FICi (C. neoformans [5])
6 | 1.56 to 3.13 µg/mL | 71.4% |  |  |  | CCCCCCCCCCCCCNCC(=O)N(CC(=O)N(CCCCN)CC(=O)N(CCN)CC(=O)N(CC(N)=O)CC1CCCCC1)CC1CCCCC1 [Compound 12] (H-[N(tridecyl)Gly][NCyclohexylmethylGly][Nlys][Gly(N-2-aminoethyl)][NCyclohexylmethylGly]-NH2) | 62 ± 3 µg/mL (≈ 78.4 µM) |  |  | 
7 | 12.5 to 25 µg/mL | 67.3% |  |  |  | CCCCCCCCCCCCCNCC(=O)N(CC(=O)N(CCCCN)CC(=O)N(CCN)CC(=O)N(CC(N)=O)CC1CCCO1)CC1CCCO1 (stereo not shown) [Compound 13] | > 200 µg/mL | greater than 200 μg/mL |  | 
8 | 1.56 to 3.13 µg/mL | 67.7% |  |  |  | CCCCCCCCCCCCCNCC(=O)N(CC(=O)N(CCCCN)CC(=O)N(CCN)CC(=O)N(CC(N)=O)c1ccccc1)c1ccccc1 [Compound 14] (H-[N(tridecyl)Gly][NPhGly][Nlys][Gly(N-2-aminoethyl)][NPhGly]-NH2) | 81 ± 25 µg/mL (≈ 108 µM) |  |  | 
9 |  |  | 2 µg/mL | 1.56 µg/mL | 2 µg/mL | OC(Cn1cncn1)(Cn1cncn1)c1ccc(F)cc1F [Fluconazole] |  |  | indifferent | 2
10 |  |  | 2 µg/mL | 1.56 µg/mL | 2 µg/mL | Nc1[nH]c(=O)ncc1F [Flucytosine] |  |  | indifferent | 2
